The subject of test [1] is MDA-MB-231 breast cancer cells. The test can be described thus: Cell growth inhibition, Sulforhodamine B assay, MDA-MB-231. The class given is cell-based. The settings on record: Homo sapiens, 120 h, 5 days culture, SRB assay, read-out: Cell Line GI50 Range MDA-MB-231. A general note: Sulforhodamine B stains cellular protein and so reports cell mass.
Test [2] has as its system MDA-MB-468 breast cancer cells. The test can be described thus: Cell growth inhibition, Sulforhodamine B assay, MDA-MB-468. The following applies: Homo sapiens, 120 h, 5 days culture, SRB assay, read-out: Cell Line GI50 Range MDA-MB-468. Type of test: cell-based.
Test [3] relates to HCT116 colon cancer cells. The test can be described thus: Cell growth inhibition, Sulforhodamine B assay, HCT116. The settings on record: Homo sapiens, HCT-116, 120 h, 5 days culture, SRB assay, read-out: Cell Line GI50 Range HCT116. Type of test: cell-based.
For a further test, the target named is T1, human PLK4 (Homo sapiens, UniProt O00444).
T1 construct: amino terminal GST fusion of residues 1-391 of human PLK4; made in house; host or cells: E. coli
T1 sequence (O00444 1-391): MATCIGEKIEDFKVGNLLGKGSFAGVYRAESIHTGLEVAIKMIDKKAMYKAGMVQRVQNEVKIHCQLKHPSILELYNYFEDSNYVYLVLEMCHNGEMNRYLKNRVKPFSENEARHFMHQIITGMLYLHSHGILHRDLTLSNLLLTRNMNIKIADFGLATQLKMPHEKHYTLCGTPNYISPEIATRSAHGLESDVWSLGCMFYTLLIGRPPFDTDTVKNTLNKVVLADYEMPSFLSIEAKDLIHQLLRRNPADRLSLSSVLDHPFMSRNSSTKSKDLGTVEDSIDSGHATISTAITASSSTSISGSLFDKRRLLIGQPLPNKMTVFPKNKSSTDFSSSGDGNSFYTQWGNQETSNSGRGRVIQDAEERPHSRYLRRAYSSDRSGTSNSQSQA
In words: PLK4 inhibition assay (indirect ELISA). The class given is biochemical. The following applies: GST-PLK4 4 nM, 15 μM ATP; read-out: IC50 Ranges PLK4. In a few lines: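 Compounds were tested either at a single 10 μM dose or across 10-point titrations (typically 0.5 to 0.001 μM), preincubated 15 min with 4 nM GST-PLK4 (human 1-391, dephosphorylated) before 15 μM ATP was added. MBP substrate phosphorylation over 30 min, pH 7.5 HEPES/MgCl2 buffer, read by HRP/TMB ELISA (450 nm). % inhibition vs. high-activity control; IC50 by logistic fit.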

Another test deals with T2, human TTK (Homo sapiens, UniProt P33981).
T2 construct: amino terminal GST fusion of full length human TTK; purchased Invitrogen
T2 sequence (P33981 1-857): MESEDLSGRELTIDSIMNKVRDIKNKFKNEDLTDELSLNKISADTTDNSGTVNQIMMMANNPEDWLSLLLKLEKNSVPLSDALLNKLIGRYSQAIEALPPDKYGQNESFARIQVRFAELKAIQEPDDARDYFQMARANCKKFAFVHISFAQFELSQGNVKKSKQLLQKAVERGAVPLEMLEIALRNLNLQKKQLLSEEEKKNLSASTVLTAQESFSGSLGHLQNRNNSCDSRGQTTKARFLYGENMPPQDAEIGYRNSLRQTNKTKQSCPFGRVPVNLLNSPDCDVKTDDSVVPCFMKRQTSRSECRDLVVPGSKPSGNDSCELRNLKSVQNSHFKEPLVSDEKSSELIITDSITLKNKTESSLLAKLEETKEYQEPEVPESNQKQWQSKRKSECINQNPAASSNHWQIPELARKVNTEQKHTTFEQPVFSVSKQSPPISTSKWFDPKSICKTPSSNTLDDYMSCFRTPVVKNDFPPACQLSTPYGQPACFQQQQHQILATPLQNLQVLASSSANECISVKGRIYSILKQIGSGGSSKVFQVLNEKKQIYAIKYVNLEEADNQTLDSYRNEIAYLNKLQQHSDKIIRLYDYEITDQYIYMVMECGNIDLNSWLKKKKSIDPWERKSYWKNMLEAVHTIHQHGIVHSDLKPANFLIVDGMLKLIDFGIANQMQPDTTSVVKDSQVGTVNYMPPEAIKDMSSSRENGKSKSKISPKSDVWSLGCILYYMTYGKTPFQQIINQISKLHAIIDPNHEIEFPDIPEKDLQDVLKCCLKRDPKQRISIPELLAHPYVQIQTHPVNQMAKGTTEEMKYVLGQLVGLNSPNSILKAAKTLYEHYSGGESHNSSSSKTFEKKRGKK
The test can be described thus: TTK inhibition assay (indirect ELISA). The class given is biochemical. The settings on record: GST-TTK 0.68 nM, 16 μM ATP; read-out: IC50 Ranges TTK.

In the next test the target is T3, Aurora B (Homo sapiens, UniProt Q96GD4).
T3 construct: purchased Invitrogen PV3970
T3 sequence (Q96GD4 whole entry): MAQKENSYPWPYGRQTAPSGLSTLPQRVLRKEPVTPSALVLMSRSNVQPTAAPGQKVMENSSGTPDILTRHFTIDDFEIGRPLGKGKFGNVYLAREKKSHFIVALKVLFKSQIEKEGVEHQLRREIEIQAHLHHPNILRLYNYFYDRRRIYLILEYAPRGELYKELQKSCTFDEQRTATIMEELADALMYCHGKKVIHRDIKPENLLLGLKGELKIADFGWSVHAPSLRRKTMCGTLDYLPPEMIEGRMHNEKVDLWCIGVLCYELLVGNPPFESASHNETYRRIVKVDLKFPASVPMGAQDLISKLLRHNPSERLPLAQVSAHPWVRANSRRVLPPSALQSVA
In words: Aurora B inhibition assay (Z-Lyte). Type of test: biochemical. The following applies: 28 nM Aurora B, 128 μM ATP; read-out: IC50 Ranges Aurora B. How it is done:
Aurora B inhibition was determined using the Z-Lyte assay kit from Invitrogen. The assay was performed using the recommended manufacturer's instructions with 128 μM ATP and 28 nM Aurora B (Invitrogen cat #PV3970). The % inhibition values were determined according to the manufacturer's directions and IC50 values were obtained using a non-linear 4 point logistic curve fit (XLfit4, IDBS)

The values that follow come from patent publication US20140051679A1, “KINASE INHIBITORS AND METHOD OF TREATING CANCER WITH SAME” (UNIVERISTY HEALTH NETWORKS, priority 2011, published 2014).

As a reminder, the GI50 is the concentration at which growth is held to half of that of the control. What is called IC50 is the concentration needed to halve the response being measured.

Consider `O=C(Nc1ccc2[nH]nc(-c3ccc(CCN4CCOCC4)cc3)c2c1)C(c1ccsc1)N1CCCC1` (stereo not drawn) [Example A6, N-(3-(4-(2-morpholinoethyl)phenyl)-1H-indazol-5-yl)-2-(pyrrolidin-1-yl)-2-(thiophen-3-yl)acetamide], for which the GI50 in test [1], in test [2] and in test [3] was at most 5 µM each time. Also, the IC50 at human PLK4, on human TTK and on Aurora B was at most 5 µM throughout.

On to `COc1cc(-c2n[nH]c3ccc(C(=O)NC(c4ccccc4)C4CC4)cc23)ccc1OC1CCN(C)CC1` (stereo not drawn) [Example A19, N-(cyclopropyl(phenyl)methyl)-3-(3-methoxy-4-((1-methylpiperidin-4-yl)oxy)phenyl)-1H-indazole-5-carboxamide], for which the GI50 in test [1], in test [2] and in test [3] was at most 5 µM in each case. Moreover, the IC50 at human PLK4, on human TTK and on Aurora B was at most 5 µM each time.

`CN1CCc2cc(-c3n[nH]c4ccc(NC(=O)C(c5ccsc5)N5CCCC5)cc34)ccc21` (stereo not drawn) [Example A16, N-(3-(1-methylindolin-5-yl)-1H-indazol-5-yl)-2-(pyrrolidin-1-yl)-2-(thiophen-3-yl)acetamide]: the GI50 in test [1], in test [2] and in test [3] was at most 5 µM in each case. Besides, the IC50 on human PLK4, at human TTK and at Aurora B was at most 5 µM each time.

With `O=C(Nc1ccc2[nH]nc(-c3ccc4c(c3)OCCCO4)c2c1)C(c1ccsc1)N1CCCC1` (stereo not drawn) [Example A20, N-(3-(3,4-dihydro-2H-benzo[b][1,4]dioxepin-7-yl)-1H-indazol-5-yl)-2-(pyrrolidin-1-yl)-2-(thiophen-3-yl)acetamide], the GI50 in test [1], in test [2] and in test [3] was at most 5 µM in each case. Besides, the IC50 on human PLK4, at human TTK and on Aurora B was at most 5 µM in each case.

Regarding `COc1cc(-c2n[nH]c3ccc(NC(=O)C(c4ccsc4)N4CCCC4)cc23)ccc1OC1CCNCC1` (stereo not drawn) [Example A8, N-(3-(3-methoxy-4-(piperidin-4-yloxy)phenyl)-1H-indazol-5-yl)-2-(pyrrolidin-1-yl)-2-(thiophen-3-yl)acetamide], the GI50 in test [1], in test [2] and in test [3] was at most 5 µM throughout. Besides, the IC50 at human PLK4, on human TTK and at Aurora B was at most 5 µM each time.

For `CN1CCN(c2ccc(-c3n[nH]c4ccc(NC(=O)C5CCCc6ccccc65)cc34)cc2)CC1` (stereo not drawn) [Example A11, N-(3-(4-(4-methylpiperazin-1-yl)phenyl)-1H-indazol-5-yl)-1,2,3,4-tetrahydronaphthalene-1-carboxamide], the GI50 in test [1], in test [2] and in test [3] was at most 5 µM throughout. The IC50 at human PLK4, at human TTK and on Aurora B was at most 5 µM in each case.

Take `CN(C)CCOc1ccc(-c2n[nH]c3ccc(NC(=O)C(c4ccsc4)N4CCCC4)cc23)cc1` (stereo not drawn) [Example A5, N-(3-(4-(2-(dimethylamino)ethoxy)phenyl)-1H-indazol-5-yl)-2-(pyrrolidin-1-yl)-2-(thiophen-3-yl)acetamide]: the GI50 in test [1], in test [2] and in test [3] was at most 5 µM in each case. In addition, the IC50 at human PLK4 was at most 5 µM; at human TTK it was at most 5 µM; on Aurora B, 5 to 50 µM.

With `COc1cc(-c2n[nH]c3ccc(C(=O)NC(c4ccccc4)C4CC4)cc23)ccc1OC1CCNCC1` (stereo not drawn) [Example A13, N-(cyclopropyl(phenyl)methyl)-3-(3-methoxy-4-(piperidin-4-yloxy)phenyl)-1H-indazole-5-carboxamide], the GI50 in test [1], in test [2] and in test [3] was at most 5 µM in each case. For the same compound, the IC50 on human PLK4, on human TTK and on Aurora B was at most 5 µM each time.

Take `COc1cc(-c2n[nH]c3ccc(NC(=O)C(c4ccsc4)N4CCCC4)cc23)ccc1OC1CCN(C)CC1` (stereo not drawn) [Example A21, N-(3-(3-methoxy-4-((1-methylpiperidin-4-yl)oxy)phenyl)-1H-indazol-5-yl)-2-(pyrrolidin-1-yl)-2-(thiophen-3-yl)acetamide]: the GI50 in test [1], in test [2] and in test [3] was at most 5 µM in each case. Also, the IC50 at human PLK4, at human TTK and on Aurora B was at most 5 µM in each case.

For `CN1CCN(c2ccc(-c3n[nH]c4ccc(NC(=O)C(c5ccsc5)N5CCCC5)cc34)cc2)CC1` (stereo not drawn) [Example A2, N-(3-(4-(4-methylpiperazin-1-yl)phenyl)-1H-indazol-5-yl)-2-(pyrrolidin-1-yl)-2-(thiophen-3-yl)acetamide], the GI50 in test [1], in test [2] and in test [3] was at most 5 µM each time. Also, the IC50 at human PLK4, on human TTK and on Aurora B was at most 5 µM throughout.

As to `COc1cc(-c2n[nH]c3ccc(NC(=O)C(c4ccsc4)N4CCCC4)cc23)ccc1N1CCN(C)CC1` (stereo not drawn) [Example A10, N-(3-(3-methoxy-4-(4-methylpiperazin-1-yl)phenyl)-1H-indazol-5-yl)-2-(pyrrolidin-1-yl)-2-(thiophen-3-yl)acetamide], the GI50 in test [1], in test [2] and in test [3] was at most 5 µM throughout. The IC50 at human PLK4, at human TTK and on Aurora B was at most 5 µM throughout.

As to `CN1CCOc2cc(-c3n[nH]c4ccc(NC(=O)C(c5ccsc5)N5CCCC5)cc34)ccc21` (stereo not drawn) [Example A17, N-(3-(4-methyl-3,4-dihydro-2H-benzo[b][1,4]oxazin-7-yl)-1H-indazol-5-yl)-2-(pyrrolidin-1-yl)-2-(thiophen-3-yl)acetamide], the GI50 in test [1], in test [2] and in test [3] was at most 5 µM throughout. Moreover, the IC50 at human PLK4, at human TTK and on Aurora B was at most 5 µM throughout.

With `O=C(Nc1ccc2[nH]nc(-c3cccc(CN4CCOCC4)c3)c2c1)C(c1ccsc1)N1CCCC1` (stereo not drawn) [Example A1, N-(3-(3-(morpholinomethyl)phenyl)-1H-indazol-5-yl)-2-(pyrrolidin-1-yl)-2-(thiophen-3-yl)acetamide], the GI50 in test [1], in test [2] and in test [3] was at most 5 µM in each case. The figures for the IC50 at human PLK4, at human TTK and at Aurora B were at most 5 µM, at most 5 µM and 5 to 50 µM, respectively.
